In patent US20060153932A1, “Method of treating hyperphosphataemia using lanthanum hydroxycarbonate” (Shire Pharmaceuticals, Inc., priority 2004, published 2006):

Columns and labels:
[1] = 4-week oral toxicity study in rats; settings: 103 or 1030 mg lanthanum/kg/day for 4 weeks
Procedure: A study was conducted to assess the toxicity of lanthanum hydroxycarbonate. Rats were dosed orally with lanthanum hydroxycarbonate (103 or 1030 mg lanthanum/kg/day), lanthanum carbonate tetrahydrate (103 or 1030 mg lanthanum/kg/day) or vehicle for 4 weeks.

[2] = In vitro phosphorus binding of lanthanum compounds
Procedure: In order to evaluate the efficacy of lanthanum hydroxycarbonate as a phosphate binder, the in vitro phosphorus binding of lanthanum hydroxycarbonate and lanthanum carbonate tetrahydrate were measured using the methodology described below:
The equivalent of 1 g elemental lanthanum as either lanthanum hydroxycarbonate or as lanthanum carbonate tetrahydrate was added to 500 mL of 0.1N HCl at 37° C. and adjusted to pH 1 with HCl which contained 300 mg of phosphorus. The preparation was stirred and sampled at regular intervals. This sample was filtered and the filtrate measured for phosphorus content using a Sigma Diagnostics Kit for Inorganic Phosphorus determination. The loss of phosphorus from the filtrate represents the amount of phosphorus bound by lanthanum and precipitated then retained on the filter.

SMILES | Plasma exposure to lanthanum [1] | rates of in vitro phosphate binding as compared to lanthanum carbonate tetrahydrate ([2]; dosed at the same level of elemental lanthanum) | more effective at binding phosphate in vitro, compared to lanthanum carbonate tetrahydrate ([2]; pH 1, same level of elemental lanthanum)
O.O.O.O.O=C([O-])[O-].O=C([O-])[O-].O=C([O-])[O-].[La+3].[La+3] [lanthanum carbonate tetrahydrate, Lanthanum carbonate tetrahydrate] | similar | – | –
O=C([O-])[O-].[La+3].[OH-] [lanthanum hydroxycarbonate] | – | improved rates of in vitro phosphate binding | approximately 50%
